PMC6104183, “How Female Mice Attract Males: A Urinary Volatile Amine Activates a Trace Amine-Associated Receptor That Induces Male Sexual Interest” (Frontiers in Pharmacology, 2018)

Biological target: T1, TAAR3 (Mus musculus, UniProt Q5QD16)
T1 construct: transiently expressed with Galpha-olf in HEK293 cells
T1 sequence (Q5QD16 1-343): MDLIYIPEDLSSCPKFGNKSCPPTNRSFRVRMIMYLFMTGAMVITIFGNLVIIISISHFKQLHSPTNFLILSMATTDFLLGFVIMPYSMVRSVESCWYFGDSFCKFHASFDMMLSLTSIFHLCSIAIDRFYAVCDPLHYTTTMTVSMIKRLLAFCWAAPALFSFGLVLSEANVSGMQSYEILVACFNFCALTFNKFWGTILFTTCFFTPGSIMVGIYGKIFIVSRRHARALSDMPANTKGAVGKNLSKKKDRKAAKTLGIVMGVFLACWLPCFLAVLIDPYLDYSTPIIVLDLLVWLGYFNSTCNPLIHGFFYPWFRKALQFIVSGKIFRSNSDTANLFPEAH
Experiment: cAMP accumulation, HEK293 cells, luminescence
Format: cell-based

Work on `CC(C)CN` [isobutylamine] yielded an EC50 of 32 nM.
